Legend:
VR1 [1] = molecular target: T1, VR1 (Rattus norvegicus, UniProt O35433); experiment: 45Ca influx test in CHO cells expressing VR1, antagonistic activity against 50 nM capsaicin; format: cell-based; details: 45Ca uptake stimulated with 50 nM capsaicin
T1 construct: expressed in transfected cells; host or cells: Chinese Hamster Ovary cells (CHO, ATCC CCL-61), Tet-off inducible expression
Experimental: (§1) The ^45Ca Influx test by using CHO cells of the inventive compounds was measured by using Chinese Hamster Ovary (CHO, ATCC, No. CCL-61) cell whose cDNA of VR1 (pUHG102 VR1 plasmid) was transfected, which can control the expression of VR1 according to the presence of tetracycline and Tetracycline on/off system (pTet off regulatory plasmid, Clontech. Inc., USA) that the expression of VR1 is induced by removing tetracycline from the medium.
(§2) The CHO cells were poured onto 24 well plates to the extent that its density reaches at 30% and incubated for 24 hours at 37° C. The culture medium was exchanged to tetracycline free medium to induce the expression of VR1 and tested after 36 hours.
(§3) Together with 0.25 mg/ml BSA (Sigma A2153, USA), 1 Ci/ml ^45Ca(5-30 Ci/g used, ICN. Co., 62005 RT, U.S.A.), the test samples with increasing concentrations were added to each well. At the quenching moment of the incubation with ^45Ca, the cultured cells were removed from the medium, washed three times with cool PBS buffer solution containing 1.8 mM CaCl2 and 400 μl of RIPA buffer solution (50 mM Tris pH 7.4; 150 mM sodium chloride; 0.1% SDS; 1% sodium deoxycholate), was added in each well to homogenize the cells. The plates were stirred for 20 minutes slowly and 300 μl of cell lysate was transferred to scintillation vials from each wells. The radioactivity was determined by scintillation counter.
(§4) The data were assessed by determining four wells per each data point in each experiment and analyzed in computer by being transformed into Hill equation. The experiments were determined in triplicate in each sample comprising inventive compounds and control groups.
In order to determine the antagonistic activity, ^45Ca^2+-uptake stimulating-mixture was added with 50 nM capsaicin and the antagonistic activity was determined by the method for the agonistic activity. In case that 10 μM a certain compound cannot change the capsaicin-inducing activity, the compound shall be regarded as an […].

[2] = molecular target: T2, vanilloid receptor-1 (VR1) (Rattus norvegicus, UniProt O35433); experiment: [3H]RTX competition binding assay, VR1-expressing CHO cells; details: displacement of bound [3H]RTX; mean±SEM, 3 experiments
T2 construct: expressed in transfected cells; host or cells: Chinese Hamster Ovary cells (CHO, ATCC CCL-61), Tet-off inducible expression
T2 sequence (O35433 whole entry): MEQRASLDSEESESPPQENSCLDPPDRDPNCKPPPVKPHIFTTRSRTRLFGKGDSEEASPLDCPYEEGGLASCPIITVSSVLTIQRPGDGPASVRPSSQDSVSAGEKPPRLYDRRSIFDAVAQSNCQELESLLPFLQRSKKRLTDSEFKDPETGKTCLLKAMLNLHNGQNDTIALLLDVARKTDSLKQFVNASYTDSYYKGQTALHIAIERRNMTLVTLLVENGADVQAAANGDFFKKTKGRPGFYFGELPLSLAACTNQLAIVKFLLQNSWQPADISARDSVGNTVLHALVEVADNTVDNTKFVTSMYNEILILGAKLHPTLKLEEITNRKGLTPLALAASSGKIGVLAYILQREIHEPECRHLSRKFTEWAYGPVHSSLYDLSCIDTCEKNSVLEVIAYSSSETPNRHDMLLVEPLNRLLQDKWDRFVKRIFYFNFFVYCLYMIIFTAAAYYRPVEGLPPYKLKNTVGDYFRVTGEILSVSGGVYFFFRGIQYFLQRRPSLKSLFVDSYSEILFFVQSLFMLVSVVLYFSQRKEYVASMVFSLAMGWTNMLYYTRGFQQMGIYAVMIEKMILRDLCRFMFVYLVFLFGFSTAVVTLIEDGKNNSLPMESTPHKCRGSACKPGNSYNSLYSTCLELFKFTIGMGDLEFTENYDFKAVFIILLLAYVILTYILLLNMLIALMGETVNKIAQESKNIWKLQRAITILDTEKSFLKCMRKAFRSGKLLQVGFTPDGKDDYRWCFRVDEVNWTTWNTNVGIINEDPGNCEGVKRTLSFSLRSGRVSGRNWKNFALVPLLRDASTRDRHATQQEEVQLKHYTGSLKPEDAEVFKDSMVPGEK
Experimental: The binding affinity activity of the target compounds for vanilloid receptor-1 was measured by an in vitro receptor binding affinity assay. In the receptor binding assay, the compounds were evaluated for their ability to displace bound [^3H]RTX from the receptor. The results are expressed in terms of Ki values (mean±SEM, 3 experiments) which represent the concentration of the non-radioactive ligand that displaces half of the bound labeled RTX.
The VR receptor binding affinity activity of the inventive compounds was measured by using Chinese Hamster Ovary (CHO, ATCC, No. CCL-61) cell whose cDNA of VR1 (pUHG102 VR1 plasmid) was transfected, which can control the expression of VR1 according to the presence of tetracycline and Tetracycline on/off system (pTet off regulatory plasmid, Clontech. Inc., USA) that the expression of VR1 is induced by removing tetracycline from the medium. […] The cells were cultured after removing tetracycline prior to 48 hours. The tetracycline free culture medium was seeded at the bottom of T75 flask, incubated to the extent that its density reaches at 90%, and washed once with PBS buffer solution. The cells were collected by using saline solution containing 5 mM EDTA and subjected to centrifugation slightly to obtain precipitates, further, which had been kept at the temperature of −20° C. before use.
Experiments were designed to assess inhibition of specific [^3H]RTX binding to membranes by non-radioactive compounds. The binding assay mixture containing [^3H]RTX ([…]), various concentrations of competitive binding substances, 0.25 mg/ml of BSA (Cohn fraction V), 5×10^4 ˜5×10^5 numbers of VR1 and the expression cell, was admixed with saline solution containing 450 μl of Ca^2+ and Mg^2+ and […] of BSA. Non-specific binding assay was measured after mixing 100 nM of non-radioactive RTX thereto. The reaction mixture was treated for 60 min at 37° C. and the reaction was quenched by cooling over ice. RTX bound to the membrane of VR1 was subjected to centrifugation with maximum velocity for 15 minutes to precipitate its membrane residue, which results in separating from non-binding RTX. The tips of tube containing above precipitate was cut off and the amount of bound radioisotope was determined by scintillation counter (LS6500, Beckman-Coulter, USA). The measurement of binding was determined in triplicate in each experiment, and each experiment was repeated at least two times. Binding data were analyzed by fitting to the Hill equation and the Ki (equilibrium binding parameter) index, the Bmax (maximum binding parameter) index, and the cooperativity index etc., were determined by using origin 6.0 program (Origin, MicroCal Co., USA).
An initial compound was dissolved in DMSO (dimethyl sulfoxide) and diluted with saline solution containing Ca^2+ and […], and […] of BSA.

VR1 [3] = molecular target: T1, VR1; experiment: 45Ca influx test in CHO cells expressing VR1, agonistic activity; format: cell-based; details: 45Ca uptake
Experimental: The ^45Ca Influx test by using CHO cells expressing VR1 was performed by the procedure described in the literature (Lee, J. W., Bioorganic & Medicinal Chemistry, pp 1713-1720, 2001).
as §1, §2
as §3, with “In radioactive ^45Ca uptake experiment, The cells were incubated in […] of DMEM medium (Dulbecco's modified Eagles medium: Gibco-BRL, 31600-083) containing free of serum and 1.8 mM CaCl2 for 10 minutes at 37*C. Together” for “Together”
as §4

Male ICR mice = experiment: Acetic acid-induced writhing test; format: in vivo; details: Mus musculus, ip; i.p. 30 mins before 1.2% acetic acid i.p.; 50% reduction of the number of writhes
Experimental: The acetic acid-induced writhing test for testing the analgesic activity of inventive compounds prepared from above Examples was performed by the procedure described in the literature (Lee, J. W., Bioorganic & Medicinal Chemistry, pp 1713-1720, 2001).
Male ICR mice having its mean body weight of 25 g (CD-1; Biogenomics Co. Korea) were reared in lighting controlled environment (12 hrs on/12 hrs off) maintaining with temperatures at 22±2° C. and humidity at 50±5% and allowed to eat a diet and to drink tap water ad lib.
Mice were fasted overnight prior to testing and adopted to the environment.
0.3 ml of acetic acid solution (1.2%) was administrated in the mice intraperitoneally and then the mice were put into the transparent acryl box (15×15×15 cm). 5 minutes later, the number of abdominal constrictions was counted for 20 minutes. Each group consisting of ten mice was pretreated with test compounds or solvent (0.2 ml, i.p.) 30 mins before the injection of acetic acid. Test compounds were dissolved in the mixture of ethanol/Tween-80/saline ([…]) or cremophor EL/DMSO/d-water ([…]).
Analgesic activity of each drug was determined at several different concentrations.
The index of analgesic activity (eff) was defined as below Empirical formula 1. Analgesic activity (eff)=100−{(No. of abdominal constriction of test group/No. of abdominal constriction of control group)×100} [Empirical formula 1]
Analgesic activity was expressed as the reduction in the number of abdominal constrictions, of control animals (vehicle-pretreated mice) and animals pretreated with test compounds.

T1 sequence (O35433 whole entry): as above

`Oc1cc2c(cc1O)CN(C(=S)NCCc1ccc(Cl)cc1)CCC2` [Capsazepine, reference compound] showed an IC50 (VR1 [1]) of 520 nM and a Ki [2] of 1350 nM.
For `CC(C)(C)c1ccc(CN(O)C(=S)NCc2ccc(NS(C)(=O)=O)c(Cl)c2)cc1` [Compound 31, N-(4-tert-butylbenzyl)-N-hydroxy-N-[3-chloro-4-(methylsulfonylamino)benzyl]thiourea], the IC50 (VR1 [1]) was 579 nM and the Ki [2] was 1310 nM.
`CC(C)(C)c1ccc(CN(O)C(=S)NCc2ccc(NS(C)(=O)=O)c([N+](=O)[O-])c2)cc1` [Compound 32, N-(4-tert-butylbenzyl)-N-hydroxy-N-[4-(methylsulfonylamino)-3-nitrobenzyl]thiourea] gave an IC50 (VR1 [1]) of 635 nM.
With `CC(C)(C)c1ccc(CN(O)C(=S)NCc2ccc(NS(C)(=O)=O)cc2F)cc1` [Compound 33, N-(4-tert-butylbenzyl)-N-hydroxy-N-[2-fluoro-4-(methylsulfonylamino)benzyl]thiourea] the EC50 (VR1 [3]) was 12300 nM and the Ki [2] was 1920 nM.
`CC(C)(C)c1ccc(CN(O)C(=S)NCc2ccc(NS(C)(=O)=O)cc2Cl)cc1` [Compound 34, N-(4-tert-butylbenzyl)-N-hydroxy-N-[2-chloro-4-(methylsulfonylamino)benzyl]thiourea] gave a Ki [2] of 2270 nM.
`COc1cc(CNC(=S)N(O)CC(COC(=O)C(C)(C)C)Cc2ccc(C)c(C)c2)ccc1NS(C)(=O)=O` (stereo not drawn) [Compound 36, N-[2-(3,4-dimethylbenzyl)-3-(pivaloyloxy)propyl]-N-hydroxy-N-[3-methoxy-4-(methylsulfonylamino)benzyl]thiourea] was tested, and the EC50 (VR1 [3]) was 809 nM and the Ki [2] was 396 nM.
With `Cc1ccc(CC(COC(=O)C(C)(C)C)CN(O)C(=S)NCc2ccc(NS(C)(=O)=O)cc2F)cc1C` (stereo not drawn) [Compound 38, N-[2-(3,4-dimethylbenzyl)-3-(pivaloyloxy)propyl]-N-hydroxy-N-[2-fluoro-4-(methylsulfonylamino)benzyl]thiourea] the EC50 (VR1 [3]) was 1350 nM.
`Cc1ccc(CC(COC(=O)C(C)(C)C)CN(O)C(=S)NCc2ccc(NS(C)(=O)=O)cc2Cl)cc1C` (stereo not drawn) [Compound 39, N-[2-(3,4-dimethylbenzyl)-3-(pivaloyloxy)propyl]-N-hydroxy-N-[2-chloro-4-(methylsulfonylamino)benzyl]thiourea] gave an IC50 (VR1 [1]) of 757 nM and a Ki [2] of 221 nM.
With `CC(C)(C)C(=O)OCC(Cc1ccc(C(C)(C)C)cc1)CN(O)C(=S)NCc1ccc(NS(C)(=O)=O)cc1` (stereo not drawn) [Compound 40, N-[2-(4-tert-butylbenzyl)-3-(pivaloyloxy)propyl]-N-hydroxy-N-[4-(methylsulfonylamino)benzyl]thiourea] the “EC50 (nM) (VR1/CHO)” value (VR1 [3]) was “weak” and the Ki [2] was 536 nM.
`CC(C)(C)C(=O)OCC(Cc1ccc(C(C)(C)C)cc1)CN(O)C(=S)NCc1ccc(NS(C)(=O)=O)c(F)c1` (stereo not drawn) [Compound 41, N-[2-(4-tert-butylbenzyl)-3-(pivaloyloxy)propyl]-N-hydroxy-N-[3-fluoro-4-(methylsulfonylamino)benzyl]thiourea] was tested, and the “EC50 (nM) (VR1/CHO)” value (VR1 [3]) was “Weak”, the “IC50 (nM) (VR1/CHO)” value (VR1 [1]) was “Weak” and the Ki [2] was 405 nM.
In the case of `Cc1ccc(CC(CNC(=S)N(O)Cc2ccc(NS(C)(=O)=O)cc2)COC(=O)C(C)(C)C)cc1C` (stereo not drawn) [Compound 61, N-[2-(3,4-dimethylbenzyl)-3-(pivaloyloxy)propyl]-N-hydroxy-N-[4-(methylsulfonylamino)benzyl]thiourea], the “EC50 (nM) (VR1/CHO)” value (VR1 [3]) was “Weak”, the “IC50 (nM) (VR1/CHO)” value (VR1 [1]) was “Weak” and the Ki [2] was 481 nM.
With `CC(C)(C)c1ccc(CC(=O)N(O)Cc2ccc(NS(C)(=O)=O)cc2)cc1` [Compound 63, N-hydroxy-N-[4-(methylsulfonylamino)benzyl]-2-(4-tert-butylphenyl)acetamide] the EC50 (VR1 [3]) was 1960 nM and the Ki [2] was 5310 nM.
`Cc1ccc(CC(CNC(=S)N(O)Cc2ccc(NS(C)(=O)=O)c(F)c2)COC(=O)C(C)(C)C)cc1C` (stereo not drawn) [Compound 64, N-[2-(3,4-dimethylbenzyl)-3-(pivaloyloxy)propyl]-N-hydroxy-N-[3-fluoro-4-(methylsulfonylamino)benzyl]thiourea] was tested, and the “EC50 (nM) (VR1/CHO)” value (VR1 [3]) was “Weak” and the Ki [2] was 546 nM.
`Cc1ccc(CC(CNC(=S)NCc2ccc(NS(C)(=O)=O)cc2)COC(=O)C(C)(C)C)cc1C` (stereo not drawn) [JYL-827, reference compound] showed an ED50 (Male ICR mice) of 2.62 µg/kg.
`Cc1ccc(CC(CNC(=S)NCc2ccc(NS(C)(=O)=O)c(F)c2)COC(=O)C(C)(C)C)cc1C` (stereo not drawn) [JYL-1433, reference compound] was tested, and the ED50 (Male ICR mice) was 7.43 µg/kg.
`CC(C)(C)c1ccc(CNC(=S)NCc2ccc(NS(C)(=O)=O)cc2)cc1` [KJM-429, reference compound] was tested, and the ED50 (Male ICR mice) was 1410 µg/kg.
`O=C(c1ccccc1)c1ccc2n1CCC2C(=O)O` (stereo not drawn) [Ketorolac, reference compound] showed an ED50 (Male ICR mice) of 2820 µg/kg.
`CC(C)(C)c1ccc(CNC(=S)NCc2ccc(NS(C)(=O)=O)c(F)c2)cc1` [SC-0030, reference compound] showed an ED50 (Male ICR mice) of 1.26 µg/kg.

Source: US20050288369A1, “Novel n-hydroxy thiourea, urea and amide compounds and the pharmaceutical compositions comprising the same” (priority 2002, published 2005)
